Measurements: patent US8802597B2, “Herbicidal pyrimidines” (E I du Pont de Nemours and Company, priority 2003, dated 2014)

Tests used:
Test in all cases: Test E flooded paddy water application
Assay type in all cases: in vivo
Settings in all cases: Flood, 21 days, scale 0 to 100 (0 no effect, 100 complete control)
[1] = test system: bearded (brdd.) sprangletop (Leptochloa fusca ssp. fascicularis)
How it was run: (§1)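 Greenhouse pots of Tama silt loam with weeds and rice at 2.0–2.5-leaf stage, flooded to 3 cm; compounds applied directly into paddy water, depth maintained. Visual rating versus untreated controls after 21 days, 0 (no effect) to 100 (complete control); 29.5/26.7 °C, 16-h photoperiod.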

[2] = test system: ducksalad (Heteranthera limosa)
How it was run: as §1

[3] = test system: early watergrass (Echinochloa oryzoides)
How it was run: as §1

[4] = test system: junglerice (Echinochloa colona)
How it was run: as §1

[5] = test system: late watergrass (Echinochloa oryzicola)
How it was run: as §1

[6] = test system: purple redstem (Ammannia coccinea)
How it was run: as §1

[7] = test system: rice flatsedge (Cyperus iria)
How it was run: as §1

[8] = test system: smallflower umbrella sedge (Cyperus difformis)
How it was run: as §1

[9] = test system: transplanted rice seedlings (Oryza sativa cv. ‘Japonica-M202’)
How it was run: as §1

[10] = test system: water seeded rice seedlings (Oryza sativa cv. ‘Japonica-M202’)
How it was run: as §1

## CCOC(=O)c1nc(-c2ccc(Cl)cc2)nc(N)c1Cl [Compound 64, ethyl 6-amino-5-chloro-2-(4-chlorophenyl)-4-pyrimidinecarboxylate]
[1]; 32 g ai/ha
  Sprangletop, Brdd. plant response rating: 0
[1]; 64 g ai/ha
  Sprangletop, Brdd. plant response rating: 0
[1]; 125 g ai/ha
  Sprangletop, Brdd. plant response rating: 0
[1]; 250 g ai/ha
  Sprangletop, Brdd. plant response rating: 0
[1]; 16 g ai/ha
  Plant response rating, Sprangletop, Brdd.: 0
[2]; 32 g ai/ha
  Ducksalad plant response rating: 100
[2]; 64 g ai/ha
  Ducksalad plant response rating: 100
[2]; 125 g ai/ha
  Ducksalad plant response rating: 100
[2]; 250 g ai/ha
  Ducksalad plant response rating: 100
[2]; 16 g ai/ha
  Plant response rating, Ducksalad: 100
[3]; 32 g ai/ha
  Watergrass, Early plant response rating: 0
[3]; 64 g ai/ha
  Watergrass, Early plant response rating: 0
[3]; 125 g ai/ha
  Watergrass, Early plant response rating: 0
[3]; 250 g ai/ha
  Watergrass, Early plant response rating: 0
[3]; 16 g ai/ha
  Plant response rating, Watergrass, Early: 0
[4]; 32 g ai/ha
  Junglerice plant response rating: 0
[4]; 64 g ai/ha
  Junglerice plant response rating: 0
[4]; 125 g ai/ha
  Junglerice plant response rating: 0
[4]; 250 g ai/ha
  Junglerice plant response rating: 0
[4]; 16 g ai/ha
  Plant response rating, Junglerice: 0
[5]; 32 g ai/ha
  Watergrass, Late plant response rating: 0
[5]; 64 g ai/ha
  Watergrass, Late plant response rating: 0
[5]; 125 g ai/ha
  Watergrass, Late plant response rating: 20
[5]; 250 g ai/ha
  Watergrass, Late plant response rating: 20
[5]; 16 g ai/ha
  Plant response rating, Watergrass, Late: 0
[6]; 32 g ai/ha
  Redstem plant response rating: 60
[6]; 64 g ai/ha
  Redstem plant response rating: 60
[6]; 125 g ai/ha
  Redstem plant response rating: 60
[6]; 250 g ai/ha
  Redstem plant response rating: 80
[6]; 16 g ai/ha
  Plant response rating, Redstem: 20
[7]; 32 g ai/ha
  Flatsedge, Rice plant response rating: 85
[7]; 64 g ai/ha
  Flatsedge, Rice plant response rating: 90
[7]; 125 g ai/ha
  Flatsedge, Rice plant response rating: 100
[7]; 250 g ai/ha
  Flatsedge, Rice plant response rating: 100
[7]; 16 g ai/ha
  Plant response rating, Flatsedge, Rice: 75
[8]; 32 g ai/ha
  Sedge, Umbrella plant response rating: 80
[8]; 64 g ai/ha
  Sedge, Umbrella plant response rating: 85
[8]; 125 g ai/ha
  Sedge, Umbrella plant response rating: 100
[8]; 250 g ai/ha
  Sedge, Umbrella plant response rating: 100
[8]; 16 g ai/ha
  Plant response rating, Sedge, Umbrella: 65
[9]; 32 g ai/ha
  Rice, Transplanted plant response rating: 0
[9]; 64 g ai/ha
  Rice, Transplanted plant response rating: 0
[9]; 125 g ai/ha
  Rice, Transplanted plant response rating: 10
[9]; 250 g ai/ha
  Rice, Transplanted plant response rating: 10
[9]; 16 g ai/ha
  Plant response rating, Rice, Transplanted: 0
[10]; 32 g ai/ha
  Rice, Water Seeded plant response rating: 0
[10]; 64 g ai/ha
  Rice, Water Seeded plant response rating: 0
[10]; 125 g ai/ha
  Rice, Water Seeded plant response rating: 0
[10]; 250 g ai/ha
  Rice, Water Seeded plant response rating: 0
[10]; 16 g ai/ha
  Plant response rating, Rice, Water Seeded: 0
